Assay results as given in patent US8609645B2, “Pharmaceutical formulation” (Intervet Inc., priority 2004, dated 2013).

Key:
[1] = cited from earlier work
[2] = cited from earlier work; remark: listed apart in the source
fungi = test: Antifungal activity compared with traditional veterinary antifungal compounds; details: fold versus clotrimazole, miconazole, nystatin
Excerpt: The antifungal drug preferably is posaconazole, a drug with 10-400× the antifungal activity of traditional antifungal compounds used in veterinary medicine such as clotrimazole, miconazole, nystatin. It will be the first use of a triazole antifungal in veterinary medicine. The combination for this proposed otic product is new. The product requires only one application per day. In summary, the justification for use of the centralized procedure is: • Novel antibiotic in an otic preparation with none of the ototoxicity of the aminoglycosides often used in such products; • Novel, corticosteroid, with a better safety profile when compared other corticosteroids used in otic preparations; • Potent triazole anti-fungal drug; • Novel combination of the three drugs described above; • Single daily application.

## C[C@@H]1C[C@H]2[C@@H]3CCC4=CC(=O)C=C[C@]4(C)[C@@]3(Cl)[C@@H](O)C[C@]2(C)[C@@]1(OC(=O)c1ccco1)C(=O)CCl [Mometasone Furoate, 9,21-Dichloro-11(beta),17-dihydroxy-16(alpha)-methylpregna-1,4-diene-3,20-dione 17-(2 Furoate)]
[1]; acetone
  solubility in acetone: soluble
[1]; chloroform
  solubility in chloroform: soluble
[1]; ethanol
  solubility in ethanol: slightly soluble
[1]; isopropanol
  solubility in isopropanol: slightly soluble
[1]; methanol
  solubility in methanol: slightly soluble
[1]; tetrahydrofuran
  solubility in tetrahydrofuran: freely soluble
[1]; water
  solubility in water: practically insoluble
[2]
  partition coefficient between octanol and water: greater than 5000

## CC[C@@H]([C@H](C)O)n1ncn(-c2ccc(N3CCN(c4ccc(OC[C@@H]5CO[C@@](Cn6cncn6)(c6ccc(F)cc6F)C5)cc4)CC3)cc2)c1=O [posaconazole]
fungi
  antifungal activity relative to traditional antifungal compounds: 10-400 ×
